Results reported in ChEMBL document CHEMBL1201862, “PubChem BioAssay data set” (2004).
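Compound exposure: 48 hours, 5 concentrations, 96-well plates. GI50: concentration for 50% inhibition of growth.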 Activity calls are given as the source filed them. Rule as the data show it: active = GI50 up to about 1.1 µM and inactive = higher.

What was measured:
Assay in all cases: inhibition of tumour cell growth, NCI panel, 48 h
A498 = tested on: A498
A549 = tested on: A549
ACHN = tested on: ACHN
COLO 205 = tested on: COLO 205
K562 = tested on: K562
M14 = tested on: M14
MOLT-4 = tested on: MOLT-4
Malme-3M = tested on: Malme-3M
NCI-H460 = tested on: NCI-H460
NCI-H522 = tested on: NCI-H522
OVCAR-8 = tested on: OVCAR-8
SF-539 = tested on: SF-539
SK-MEL-2 = tested on: SK-MEL-2
SK-MEL-5 = tested on: SK-MEL-5
SN12C = tested on: SN12C
SR = tested on: SR
SW-620 = tested on: SW-620
U-251 = tested on: U-251
UACC-62 = tested on: UACC-62
UO-31 = tested on: UO-31

| Compound | GI50 (A498) | GI50 (A549) | GI50 (ACHN) | GI50 (COLO 205) | GI50 (K562) | GI50 (M14) | GI50 (MOLT-4) | GI50 (Malme-3M) | GI50 (NCI-H460) | GI50 (NCI-H522) | GI50 (OVCAR-8) | GI50 (SF-539) | GI50 (SK-MEL-2) | GI50 (SK-MEL-5) | GI50 (SN12C) | GI50 (SR) | GI50 (SW-620) | GI50 (U-251) | GI50 (UACC-62) | GI50 (UO-31) |
| --- | --- | --- | --- | --- | --- | --- | --- | --- | --- | --- | --- | --- | --- | --- | --- | --- | --- | --- | --- | --- |
| C1=CCN(c2ccccc2)CC1 | > 100 µM (inactive) | > 100 µM (inactive) | 21.5 µM (inactive) | 34.5 µM (inactive) | 30.1 µM (inactive) | 19.9 µM (inactive) | 5.69 µM (inactive) | 22.6 µM (inactive) | > 100 µM (inactive) | 16.3 µM (inactive) | 27 µM (inactive) | 43.5 µM (inactive) | 39.1 µM (inactive) | 62.7 µM (inactive) | 26.3 µM (inactive) | 2.93 µM (inactive) | 16.3 µM (inactive) | > 100 µM (inactive) | 30.3 µM (inactive) | > 100 µM (inactive) |
| O=C(O)C(CSC(c1ccccc1)(c1ccccc1)c1ccccc1)/N=C/c1cccs1 (stereo not given) | 30.3 µM (inactive) | 3.95 µM (inactive) | 12.8 µM (inactive) | 1.69 µM (inactive) | 3.54 µM (inactive) | 0.378 µM (active) | 4.19 µM (inactive) | 3.6 µM (inactive) | 3.16 µM (inactive) | 1.16 µM (inactive) | 2.55 µM (inactive) | 1.27 µM (inactive) | 2.06 µM (inactive) | 0.484 µM (active) | 3.27 µM (inactive) | 4.42 µM (inactive) | 1.76 µM (inactive) | 2 µM (inactive) | 1.17 µM (inactive) | 17.7 µM (inactive) |
| C=C=C(Sc1ccccc1)C(C)(C)OC(C)=O | 19 µM (inactive) | 23.9 µM (inactive) | > 10 µM (inactive) | 18.4 µM (inactive) | 22.1 µM (inactive) | 17.4 µM (inactive) | 34.5 µM (inactive) | 18.3 µM (inactive) | 21.1 µM (inactive) | 15.6 µM (inactive) | 20.2 µM (inactive) | 16.1 µM (inactive) | 17.9 µM (inactive) | 15.8 µM (inactive) | 16.2 µM (inactive) | 27.9 µM (inactive) | 17.6 µM (inactive) | 16.9 µM (inactive) | 14.3 µM (inactive) | 14.2 µM (inactive) |
| O=C(C1=C(C(=O)c2ccccc2)SC2(S1)C(C(=O)c1ccccc1)=C(C(=O)c1ccccc1)Sc1c2ssc1=O)c1ccccc1 | 17.2 µM (inactive) | 30.5 µM (inactive) | 37.5 µM (inactive) | > 100 µM (inactive) | 30.4 µM (inactive) | 37.3 µM (inactive) | 1.11 µM (active) | > 100 µM (inactive) | 31.5 µM (inactive) | 26.7 µM (inactive) | 44.5 µM (inactive) | 24.4 µM (inactive) | 99.1 µM (inactive) | 43.6 µM (inactive) | 26.7 µM (inactive) | 9.51 µM (inactive) | 22 µM (inactive) | 32.6 µM (inactive) | 22.4 µM (inactive) | 22.4 µM (inactive) |
| CC(C)OP(=O)(OC(C)C)/C(F)=N/Nc1ccc([N+](=O)[O-])cc1 | > 100 µM (inactive) | > 100 µM (inactive) | > 100 µM (inactive) | > 100 µM (inactive) | > 100 µM (inactive) | > 100 µM (inactive) | > 100 µM (inactive) | > 100 µM (inactive) | > 100 µM (inactive) | > 100 µM (inactive) | > 100 µM (inactive) | > 100 µM (inactive) | > 100 µM (inactive) | > 100 µM (inactive) | > 100 µM (inactive) | > 100 µM (inactive) | > 100 µM (inactive) | > 100 µM (inactive) | > 100 µM (inactive) | > 100 µM (inactive) |
